Experimental data taken from patent US20210198284A1, “GOLD COMPOSITIONS AND METHODS OF USE THEREOF” (THE UNIVERSITY OF MASSACHUSETTS, priority 2018, published 2021).
Read-outs that look alike come from different tables or passages of the source.

Experiments:
[1] = Log P determination (n-octanol/water, FAAS)
Method in brief: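 Shake-flask partition between mutually saturated n-octanol and water; Au in each phase quantified by flame AAS against aqueous Au-standard and n-octanol calibration curves. Compound shaken ~4 h in water then 1 h with octanol, or 3-4 h in both phases then diluted and shaken 1 h; log P = log([oct]/[water]).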

A. baumannii NCTC 13420 = assay: Antibacterial assay, MIC/MBC by broth microdilution (CLSI); assay type: cell-based
Method in brief: (§1)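 CLSI broth microdilution in cation-adjusted Mueller Hinton broth, log-phase inoculum diluted to 7.5×10^5 CFU/mL before 1:1 mixing with two-fold compound dilutions, triplicates, 18 h at 37 °C static. MIC: >90% inhibition by OD600; MBC: lowest concentration giving no colonies after 5 μL spotted on agar, 18 h, 37 °C.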

[2] = tested on: K. pneumoniae ATCC 700603; assay: as above; assay type: cell-based
Method in brief: as §1

E. coli ATCC 25922 = assay: as above; assay type: cell-based; conditions: for MIC: repeated twice, a/b = both values
Method in brief: as §1

E. cloacae NCTC 13405 = assay: as above; assay type: cell-based; conditions: for MBC (in brackets) / MIC: E. cloacae NCTC 13405; for MIC: repeated twice, a/b = both values
Method in brief: as §1

S. aureus JE2 (USA300) = assay: as above; assay type: cell-based; conditions: for MBC (in brackets) / MIC: S. aureus JE2 (USA300); for MIC: repeated twice, a/b = both values
Method in brief: as §1

P. aeruginosa NCTC 13437 = assay: as above; assay type: cell-based; conditions: for MBC (in brackets) / MIC: P. aeruginosa NCTC 13437; for MIC: repeated twice, a/b = both values
Method in brief: as §1

E. faecalis ATCC 700221 = assay: as above; assay type: cell-based; conditions: for MIC: repeated twice, a/b = both values
Method in brief: as §1

[3] = A. baumannii NCTC 13420, repeated twice, a/b = both values
[4] = K. pneumoniae ATCC 700603, repeated twice, a/b = both values

| Substance | MBC (in brackets) (A. baumannii NCTC 13420; A. baumannii NCTC 13420) | MIC (A. baumannii NCTC 13420; [3]) | MBC (in brackets) ([2]; K. pneumoniae ATCC 700603) | MIC [2, 4] | MBC (in brackets) (E. coli ATCC 25922) | MIC (E. coli ATCC 25922) | MBC (in brackets) (E. cloacae NCTC 13405) | MIC (E. cloacae NCTC 13405) | MBC (in brackets) (S. aureus JE2 (USA300)) | MIC (S. aureus JE2 (USA300)) [μM/mL] | MBC (in brackets) (P. aeruginosa NCTC 13437) | MIC (P. aeruginosa NCTC 13437) | Log P [1] | MBC (in brackets) (E. faecalis ATCC 700221) | MIC (E. faecalis ATCC 700221) | further results |
| --- | --- | --- | --- | --- | --- | --- | --- | --- | --- | --- | --- | --- | --- | --- | --- | --- |
| (2,3,4,6-Tetra-O-acetyl-1-thio-β-D-glucopyranosato) (triethylphosphine) gold(I) [Compound 1, reference compound] | 47(47) μM/mL | 47(47) μM/mL | 377 (377) μM/mL | 377 (377) μM/mL | 24 (24) μM/mL | 24 (24) μM/mL | 189 (189) μM/mL | 189 (189) μM/mL | (0.09) μM/mL | 0.04 | 377 (377) μM/mL | 377 (377) μM/mL | – | – | – | Log P ([1]; n-octanol/water, gold by FAAS): 0.56; MIC/MBC (A. baumannii NCTC 13420; A. baumannii): 47 µM; MIC/MBC ([2]; K. pneumoniae): 377 µM |
| (2-Aminobenzenethiolato)(triethylphosphine) gold(I) [Compound 19] | 18 μM/mL | 18/36 | 146 (146) μM/mL | 146 (146) μM/mL | 36 (36) μM/mL | 36 (36) μM/mL | (36/73) | 18/73 | (0.6) μM/mL | 0.009 | 291 (291) μM/mL | 291 (291) μM/mL | 0.61 | (0.1) μM/mL | 0.02 μM/mL | MIC values in words (S. aureus JE2 (USA300); S. aureus): nanomolar range |
| (2-Mercaptoethanolato)(trimethylphosphine) gold (I) [Compound 27] | 23 μM/mL | 6/3 | 23 μM/mL | 11 μM/mL | 11 μM/mL | 1/6 | 3 (3) μM/mL | 3 (3) μM/mL | 0.7 μM/mL | 0.3 | 91 μM/mL | 23/91 | −0.15 | 0.3 (0.3) μM/mL | 0.3 (0.3) μM/mL | MIC (A. baumannii NCTC 13420; A. baumannii): 5.7 µM; MIC ([2]; K. pneumoniae): 11 µg/mL; MIC or MIC/MBC, fold lower than auranofin ([2]; K. pneumoniae): 34 fold; MIC/MBC (E. cloacae NCTC 13405; E. cloacae): 2.9 µM; MIC/MBC, fold lower than / improvement over auranofin (E. cloacae NCTC 13405; E. cloacae): 65 fold; activity in words (P. aeruginosa NCTC 13437; P. aeruginosa): showed activity |
| [2,3,4,6-Tetra-O-acetyl-α-D-glucopyranosyl (1→4)-2,3,6-tri-O-acetyl-1-thio-β-D-glucopyranosato](triethylphosphine) gold(I) [Compound 5] | 33 (33) μM/mL | 33 (33) μM/mL | – | >265 μM/mL | 17 (17) μM/mL | 17 (17) μM/mL | 66 (66) μM/mL | 66 (66) μM/mL | (0.06) μM/mL | 0.008 | 132 (132) μM/mL | 132 (132) μM/mL | 0.45 | 6 (0.1) μM/mL | – | – |
